Structures can show the parent of a compound that is named as a salt.
Experiments:
[1] = test system: Pacific cod trypsin (PcT); assay: inverse substrate hydrolysis, absorbance at […] nm, Lineweaver-Burk; type: biochemical, Gadus macrocephalus; details: 50 mM Tris-HCl pH 8.0, 10 mM CaCl2, 30°C, substrate in DMSO (10 of 200 μL)
[2] = test system: Pacific cod trypsin (PcT); assay: p-nitroaniline release at […] nm, Lineweaver-Burk; type: biochemical, Gadus macrocephalus; details: 50 mM Tris-HCl pH 8.0, 10 mM CaCl2, 30°C, substrate in DMSO (10 of 200 μL)

| SMILES | Km [1] [µM] | Km [2] [µM] |
| --- | --- | --- |
| C[C@H](NC(=O)OC(C)(C)C)C(=O)Oc1ccc(C(=N)N)cc1 [5a, N-(tert-butoxycarbonyl)-L-alanine p-amidinophenyl esters] | 1.5 | – |
| N=C(N)NCCC[C@H](NC(=O)c1ccccc1)C(=O)Nc1ccc([N+](=O)[O-])cc1 [BAPA, N-benzoyl-L-arginine p-nitroanilide hydrochloride] | – | 37 |
